Experiment [1] concerns the target human glucagon receptor (hGCGR) (Homo sapiens, UniProt P47871). Nature of the experiment: cAMP production (HTRF) in CHO cells expressing hGCGR. The format is cell-based. Also noted: expressed in transfected cells. To be noted: cAMP, CHO cells, 0.1% BSA, geometric mean. In outline:
(§1)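 Read-out: HTRF cAMP (anti-cAMP cryptate donor, cAMP-d2 acceptor in conjugate/lysis buffer), converted to % Delta F and fitted by 4-parameter logistic for EC50. Cell densities were 1×10^5 cells/mL (hGLP-1R) or 2×10^5 cells/mL (hGCGR). Stimulation lasted 30 min at room temperature.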

The target of experiment [2] is human GLP-1 receptor (hGLP-1R) (Homo sapiens, UniProt P43220). Nature of the experiment: cAMP production (HTRF) in CHO cells expressing hGLP-1R. To be noted: for EC50: cAMP, CHO cells, 0.1% BSA, geometric mean, read-out: hGLP-1R EC50. The format is cell-based. The arrangement: expressed in transfected cells. In outline:
as §1

Where [3] appears, read: % GLP-1R activity relative to GLP-1 / % GlucR activity relative to glucagon.

Read-outs that look alike come from different tables or passages of the source. Starred links: 1 amine or outer side, 2 acyl side, 3 side chain; linkers in the order of their positions; H or OH if unused. Non-standard residues stand in square brackets, D forms with d. Residues, ends and D or L forms follow the SMILES beside them. Groups on a side chain read outwards from the residue. *: point of attachment. C20 diacid = O=C(O)CCCCCCCCCCCCCCCCCCC(=O)*; C18 diacid = O=C(O)CCCCCCCCCCCCCCCCC(=O)*; γGlu = O=C(O)[C@H](CCC(=O)[*:2])N[*:1]; αMeF = C[C@](N)(Cc1ccccc1)C(=O)O; AEEA = NCCOCCOCC(=O)O; Aib = CC(C)(N)C(=O)O

Sequence of human glucagon receptor (hGCGR) (P47871 26-477): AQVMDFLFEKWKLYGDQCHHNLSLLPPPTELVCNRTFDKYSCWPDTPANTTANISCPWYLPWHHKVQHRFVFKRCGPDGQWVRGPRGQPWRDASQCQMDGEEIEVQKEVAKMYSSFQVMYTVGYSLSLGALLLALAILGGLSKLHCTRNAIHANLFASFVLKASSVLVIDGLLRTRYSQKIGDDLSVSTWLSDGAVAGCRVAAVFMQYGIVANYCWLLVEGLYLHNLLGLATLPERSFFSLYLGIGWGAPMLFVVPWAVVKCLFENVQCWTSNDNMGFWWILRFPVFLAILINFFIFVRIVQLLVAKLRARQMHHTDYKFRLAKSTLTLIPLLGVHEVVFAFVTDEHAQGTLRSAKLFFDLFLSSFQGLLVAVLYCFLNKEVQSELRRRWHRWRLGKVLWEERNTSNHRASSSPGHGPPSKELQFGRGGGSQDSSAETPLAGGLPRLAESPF
Sequence of human GLP-1 receptor (hGLP-1R) (P43220 24-463): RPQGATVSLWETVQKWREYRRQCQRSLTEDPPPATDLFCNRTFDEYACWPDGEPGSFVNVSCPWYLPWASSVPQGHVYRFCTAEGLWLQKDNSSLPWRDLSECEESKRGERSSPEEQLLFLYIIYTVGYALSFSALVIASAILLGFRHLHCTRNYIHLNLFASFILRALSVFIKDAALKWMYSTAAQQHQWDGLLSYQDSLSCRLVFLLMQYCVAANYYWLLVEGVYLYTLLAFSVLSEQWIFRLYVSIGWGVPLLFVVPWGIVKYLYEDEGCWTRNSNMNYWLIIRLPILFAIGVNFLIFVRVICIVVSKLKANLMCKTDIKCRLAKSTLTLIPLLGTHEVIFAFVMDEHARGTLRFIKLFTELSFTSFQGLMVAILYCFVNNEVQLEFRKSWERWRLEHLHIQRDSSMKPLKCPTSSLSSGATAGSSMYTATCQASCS

With `CC[C@H](C)[C@H](NC(=O)[C@H](Cc1c[nH]c2ccccc12)NC(=O)[C@H](CCCCNC(=O)COCCOCCNC(=O)COCCOCCNC(=O)CC[C@H](NC(=O)CC[C@H](NC(=O)CCCCCCCCCCCCCCCCC(=O)O)C(=O)O)C(=O)O)NC(=O)[C@@H](NC(=O)[C@H](Cc1ccccc1)NC(=O)[C@H](CC(=O)O)NC(=O)[C@H](CCC(N)=O)NC(=O)[C@H](C)NC(=O)[C@H](C)NC(=O)[C@H](CCCNC(=N)N)NC(=O)[C@H](CO)NC(=O)[C@H](CC(=O)O)NC(=O)[C@H](CC(C)C)NC(=O)[C@](C)(Cc1ccccc1)NC(=O)[C@H](CCCCN)NC(=O)[C@H](CO)NC(=O)[C@@H](NC(=O)[C@H](CC(=O)O)NC(=O)[C@H](CO)NC(=O)[C@@H](NC(=O)[C@](C)(Cc1ccccc1)NC(=O)[C@H](CO)NC(=O)CNC(=O)[C@H](Cc1c[nH]cn1)NC(=O)C(C)(C)NC(=O)[C@@H](N)Cc1c[nH]cn1)[C@@H](C)O)C(C)C)C(C)C)C(=O)N[C@@H](C)C(=O)N[C@@H](CC(N)=O)C(=O)N[C@H](C(N)=O)[C@@H](C)O` [Peptide 362] (H-H[Aib]HGS[αMeF]TSDVSK[αMeF]LDSRAAQDFVK([AEEA-AEEA-γGlu-γGlu-C18 diacid])WIANT-NH2; N-terminus assumed), the results for the EC50 in experiment [1] (read-out: hGluc-R EC50) and in experiment [2] were 42.8 pM and 0.0548 nM, respectively. For the same compound, the “% Relative Potency Ratio” value in experiment [2] (setting [3]) turned out to be 1.5.
With `CC[C@H](C)[C@H](NC(=O)[C@H](Cc1c[nH]c2ccccc12)NC(=O)[C@H](CCCCNC(=O)COCCOCCNC(=O)COCCOCCNC(=O)CC[C@H](NC(=O)CC[C@H](NC(=O)CCCCCCCCCCCCCCCCC(=O)O)C(=O)O)C(=O)O)NC(=O)[C@@H](NC(=O)[C@H](Cc1ccccc1)NC(=O)[C@H](CC(=O)O)NC(=O)[C@H](CCC(N)=O)NC(=O)[C@H](C)NC(=O)[C@H](C)NC(=O)[C@H](CCCNC(=N)N)NC(=O)[C@H](CO)NC(=O)[C@H](CC(=O)O)NC(=O)[C@H](CC(C)C)NC(=O)[C@](C)(Cc1ccccc1)NC(=O)[C@H](CCCCN)NC(=O)[C@H](CO)NC(=O)[C@@H](NC(=O)[C@H](CC(=O)O)NC(=O)[C@H](CO)NC(=O)[C@@H](NC(=O)[C@](C)(Cc1ccccc1)NC(=O)[C@H](CO)NC(=O)CNC(=O)[C@H](Cc1c[nH]cn1)NC(=O)C(C)(C)NC(=O)[C@@H](N)Cc1c[nH]cn1)[C@@H](C)O)C(C)C)C(C)C)C(=O)N[C@@H](C)C(=O)N[C@@H](CC(N)=O)C(=O)N[C@H](C(=O)NCC(N)=O)[C@@H](C)O` [Peptide 363] (H-H[Aib]HGS[αMeF]TSDVSK[αMeF]LDSRAAQDFVK([AEEA-AEEA-γGlu-γGlu-C18 diacid])WIANTG-NH2; N-terminus assumed), the EC50 came to 47.5 pM in experiment [1] (read-out: hGluc-R EC50) and 0.0183 nM in experiment [2]. Besides, in experiment [2] (setting [3]), the “% Relative Potency Ratio” value stood at 5.1.
For `CC[C@H](C)[C@H](NC(=O)[C@H](Cc1c[nH]c2ccccc12)NC(=O)[C@H](CCCCNC(=O)COCCOCCNC(=O)COCCOCCNC(=O)CC[C@H](NC(=O)CCCCCCCCCCCCCCCCC(=O)O)C(=O)O)NC(=O)[C@@H](NC(=O)[C@H](Cc1ccccc1)NC(=O)[C@H](CC(=O)O)NC(=O)[C@H](CCC(N)=O)NC(=O)[C@H](C)NC(=O)C(C)(C)NC(=O)[C@H](CCCNC(=N)N)NC(=O)[C@H](CO)NC(=O)[C@H](CC(=O)O)NC(=O)[C@H](CC(C)C)NC(=O)[C@](C)(Cc1ccccc1)NC(=O)[C@H](CCCCN)NC(=O)[C@H](CO)NC(=O)[C@@H](NC(=O)[C@H](CC(=O)O)NC(=O)[C@H](CO)NC(=O)[C@@H](NC(=O)[C@](C)(Cc1ccccc1)NC(=O)[C@H](CO)NC(=O)CNC(=O)[C@H](Cc1c[nH]cn1)NC(=O)C(C)(C)NC(=O)[C@@H](N)Cc1c[nH]cn1)[C@@H](C)O)C(C)C)C(C)C)C(=O)N[C@@H](C)C(=O)N[C@@H](CC(N)=O)C(=O)N[C@H](C(N)=O)[C@@H](C)O` [Peptide 365, H(Aib)HGS(αMePhe)TSDVSK(αMePhe)LDSR(Aib)AQDFVK(O2Oc-O2Oc-γE-C18diacid)24WIANT-amide] (H-H[Aib]HGS[αMeF]TSDVSK[αMeF]LDSR[Aib]AQDFVK([AEEA-AEEA-γGlu-C18 diacid])WIANT-NH2; N-terminus assumed), the response in experiment [1] (hGluc-R EC50 (pM)) was half-maximal at 8.77 pM (EC50). In experiment [2], the “% Relative Potency Ratio” value is reported as 0.3 and the EC50 turned out to be 0.0513 nM.
`CC[C@H](C)[C@H](NC(=O)[C@H](Cc1c[nH]c2ccccc12)NC(=O)[C@H](CCCCNC(=O)COCCOCCNC(=O)COCCOCCNC(=O)CC[C@H](NC(=O)CCCCCCCCCCCCCCCCCCC(=O)O)C(=O)O)NC(=O)[C@@H](NC(=O)[C@H](Cc1ccccc1)NC(=O)[C@H](CC(=O)O)NC(=O)[C@H](CCC(N)=O)NC(=O)[C@H](C)NC(=O)C(C)(C)NC(=O)[C@H](CCCNC(=N)N)NC(=O)[C@H](CO)NC(=O)[C@H](CC(=O)O)NC(=O)[C@H](CC(C)C)NC(=O)[C@](C)(Cc1ccccc1)NC(=O)[C@H](CCCCN)NC(=O)[C@H](CO)NC(=O)[C@@H](NC(=O)[C@H](CC(=O)O)NC(=O)[C@H](CO)NC(=O)[C@@H](NC(=O)[C@](C)(Cc1ccccc1)NC(=O)[C@H](CO)NC(=O)CNC(=O)[C@H](Cc1c[nH]cn1)NC(=O)C(C)(C)NC(=O)[C@@H](N)Cc1c[nH]cn1)[C@@H](C)O)C(C)C)C(C)C)C(=O)N[C@@H](C)C(=O)N[C@@H](CC(N)=O)C(=O)N[C@H](C(N)=O)[C@@H](C)O` [Peptide 368, H(Aib)HGS(αMePhe)TSDVSK(αMePhe)LDSR(Aib)AQDFVK(O2OC-O2OC-γE-C20diacid)24WIANT-amide] (H-H[Aib]HGS[αMeF]TSDVSK[αMeF]LDSR[Aib]AQDFVK([AEEA-AEEA-γGlu-C20 diacid])WIANT-NH2): the results for the EC50 in experiment [1] (read-out: hGluc-R EC50) and in experiment [2] were 290 pM and 0.186 nM, respectively. Further, the “% Relative Potency Ratio” value in experiment [2] (setting [3]) came to 3.1.
Turning to `CC[C@H](C)[C@H](NC(=O)C(C)(C)NC(=O)[C@H](CCCCNC(=O)COCCOCCNC(=O)COCCOCCNC(=O)CC[C@H](NC(=O)CCCCCCCCCCCCCCCCCCC(=O)O)C(=O)O)NC(=O)[C@@H](NC(=O)[C@H](Cc1ccccc1)NC(=O)[C@H](CC(=O)O)NC(=O)[C@H](CCC(N)=O)NC(=O)[C@H](C)NC(=O)[C@H](C)NC(=O)[C@H](CCCNC(=N)N)NC(=O)[C@H](CO)NC(=O)[C@H](CC(=O)O)NC(=O)[C@H](CC(C)C)NC(=O)[C@](C)(Cc1ccccc1)NC(=O)[C@H](CCCCN)NC(=O)[C@H](CO)NC(=O)[C@@H](NC(=O)[C@H](CC(=O)O)NC(=O)[C@H](CO)NC(=O)[C@@H](NC(=O)[C@](C)(Cc1ccccc1)NC(=O)[C@H](CO)NC(=O)CNC(=O)[C@H](Cc1c[nH]cn1)NC(=O)C(C)(C)NC(=O)[C@@H](N)Cc1c[nH]cn1)[C@@H](C)O)C(C)C)C(C)C)C(=O)N[C@@H](C)C(=O)N[C@@H](CC(N)=O)C(=O)N[C@H](C(N)=O)[C@@H](C)O` [Peptide 369] (H-H[Aib]HGS[αMeF]TSDVSK[αMeF]LDSRAAQDFVK([AEEA-AEEA-γGlu-C20 diacid])[Aib]IANT-NH2; N-terminus assumed), the EC50 in experiment [1] (read-out: hGluc-R EC50) was 202 pM; in experiment [2] it was 0.104 nM. In addition, in experiment [2] (setting [3]), the “% Relative Potency Ratio” value was found to be 3.8.
Take `CC[C@H](C)[C@H](NC(=O)[C@H](Cc1c[nH]c2ccccc12)NC(=O)[C@H](CCCCNC(=O)COCCOCCNC(=O)COCCOCCNC(=O)CC[C@H](NC(=O)CCCCCCCCCCCCCCCCC(=O)O)C(=O)O)NC(=O)[C@@H](NC(=O)[C@](C)(Cc1ccccc1)NC(=O)[C@H](CC(=O)O)NC(=O)[C@H](CCC(N)=O)NC(=O)[C@H](C)NC(=O)[C@H](C)NC(=O)[C@H](CCC(N)=O)NC(=O)[C@H](CO)NC(=O)[C@H](CC(=O)O)NC(=O)[C@H](CC(C)C)NC(=O)[C@](C)(Cc1ccccc1)NC(=O)[C@H](CCCCN)NC(=O)[C@H](CO)NC(=O)[C@@H](NC(=O)[C@H](CC(=O)O)NC(=O)[C@H](CO)NC(=O)[C@@H](NC(=O)[C@](C)(Cc1ccccc1)NC(=O)[C@H](CO)NC(=O)CNC(=O)[C@H](Cc1c[nH]cn1)NC(=O)C(C)(C)NC(=O)[C@@H](N)Cc1c[nH]cn1)[C@@H](C)O)C(C)C)C(C)C)C(=O)N[C@@H](C)C(=O)N[C@@H](CC(N)=O)C(=O)N[C@H](C(N)=O)[C@@H](C)O` [Peptide 370] (H-H[Aib]HGS[αMeF]TSDVSK[αMeF]LDSQAAQD[αMeF]VK([AEEA-AEEA-γGlu-C18 diacid])WIANT-NH2; N-terminus assumed): the results for the EC50 in experiment [1] (read-out: hGluc-R EC50) and in experiment [2] were 182 pM and 0.323 nM, respectively. In addition, the “% Relative Potency Ratio” value in experiment [2] (setting [3]) is 1.1.
The like results for `CC[C@H](C)[C@H](NC(=O)[C@H](Cc1c[nH]c2ccccc12)NC(=O)[C@H](CCCCNC(=O)COCCOCCNC(=O)COCCOCCNC(=O)CC[C@H](NC(=O)CC[C@H](NC(=O)CCCCCCCCCCCCCCCCC(=O)O)C(=O)O)C(=O)O)NC(=O)[C@@H](NC(=O)[C@](C)(Cc1ccccc1)NC(=O)[C@H](CC(=O)O)NC(=O)[C@H](CCC(N)=O)NC(=O)[C@H](C)NC(=O)[C@H](C)NC(=O)[C@H](CCCNC(=N)N)NC(=O)[C@H](CO)NC(=O)[C@H](CC(=O)O)NC(=O)[C@H](CC(C)C)NC(=O)[C@](C)(Cc1ccccc1)NC(=O)[C@H](CCCCN)NC(=O)[C@H](CO)NC(=O)[C@@H](NC(=O)[C@H](CC(=O)O)NC(=O)[C@H](CO)NC(=O)[C@@H](NC(=O)[C@](C)(Cc1ccccc1)NC(=O)[C@H](CO)NC(=O)CNC(=O)[C@H](Cc1c[nH]cn1)NC(=O)C(C)(C)NC(=O)[C@@H](N)Cc1c[nH]cn1)[C@@H](C)O)C(C)C)C(C)C)C(=O)N[C@@H](C)C(=O)N[C@@H](CC(N)=O)C(=O)N[C@H](C(N)=O)[C@@H](C)O` [Peptide 371] (H-H[Aib]HGS[αMeF]TSDVSK[αMeF]LDSRAAQD[αMeF]VK([AEEA-AEEA-γGlu-γGlu-C18 diacid])WIANT-NH2; N-terminus assumed) were, in that order, 87.2 pM, 0.191 nM and 0.9.

Source of the values: patent publication US20250353891A1 (MEDIMMUNE LIMITED, priority 2022, published 2025).
